{"source": "patent US12036321B2", "about": "“Compositions and methods for treating or preventing multiple organ dysfunction syndrome” (VIVACELLE BIO, INC., priority 2020, dated 2024)", "origin": "cited, not measured here", "key": {"[1]": {"tested_on": "Nitric oxide synthase (NOS)", "conditions": "nitric oxide synthase inhibitor, Lopez et al., Crit. Care Med. 2004"}, "[2]": {"tested_on": "human neutrophils", "conditions": "Simpkins et al., Life Sci 1985"}, "[3]": {"conditions": "Battion et al., J Amer Oil Chem Soc 1968"}}, "note": "Like-named read-outs stand apart in the source and are kept apart here.", "data": [{"smiles": "CN=C(N)NCCC[C@H](N)C(=O)O.Cl", "note": "[546C88]", "values": [{"measurement": "outcome of trial in patients with septic shock", "setting": "[1]", "result": "increased mortality and multiple organ failure"}, {"measurement": "outcome of trial in patients with septic shock", "setting": "[1]; listed as 54C88", "result": "increased mortality"}]}, {"smiles": "C=CCN1CC[C@]23c4c5ccc(O)c4O[C@H]2C(=O)CC[C@]3(O)[C@H]1C5", "note": "[(+) naloxone]", "values": [{"measurement": "concentration range that produces anti-inflammatory effect", "setting": "[2]", "result": "10^−5-10^−4 M"}]}, {"smiles": "O=O", "note": "[Oxygen]", "values": [{"measurement": "solubility of oxygen in lipid relative to water", "setting": "[3]", "result": 4.41, "unit": "times"}]}]}
